Values quoted from earlier work as cited in patent US8293800B2, “Quinone derivative 2,3-dimethoxy-5-methyl-6-(10-hydroxydecyl)-1,4-benzoquinone for the treatment of primary progressive multiple sclerosis” (Santhera Pharmaceuticals (Schweiz) AG, priority 2009, dated 2012).

Columns and labels:
[1] = chronic-progressive form of MS; 90 mg/day in combination with methylprednisolone over 240 days
[2] = PP-MS cohort; did not reach statistical significance
[3] = PP-MS patients
[4] = PP-MS, placebo-controlled Phase II

Compound: COC1=C(OC)C(=O)C(CCCCCCCCCCO)=C(C)C1=O [Idebenone, 2,3-dimethoxy-5-methyl-6-(10-hydroxydecyl)-1,4-benzoquinone]
- clinical or neurophysiological efficacy [1]: could not be shown to have any clinical or neurophysiological efficacy

Compound: Nc1nc2ccc(OC(F)(F)F)cc2s1 [riluzole]
- inhibiting the development of cervical cord atrophy [2]: mild effect

Compound: interferon-beta
- could slow down the accumulation of disability in PP-MS [3]: Neither

Compound: Rituximab: Rituximab, tested in a placebo-controlled Phase II trial in PP-MS
- effect on the accumulation of disability [4]: failed to demonstrate any effect
